pIC50: −log10 of the molar value.
What follows are molecules tested against T1, ferroportin (Fpn) (Mus musculus, UniProt Q9JHI9) (assay: Hepcidin Internalization Assay (J774)). Details: Average (AVE) IC50 of multiple measurements; inhibition of TMR-hepcidin (25 nM) internalization into J774 cells.
T1 construct: endogenous in cells; host or cells: J774 mouse macrophage cell line, induced with Fe(III)NTA
T1 sequence (Q9JHI9 1-570): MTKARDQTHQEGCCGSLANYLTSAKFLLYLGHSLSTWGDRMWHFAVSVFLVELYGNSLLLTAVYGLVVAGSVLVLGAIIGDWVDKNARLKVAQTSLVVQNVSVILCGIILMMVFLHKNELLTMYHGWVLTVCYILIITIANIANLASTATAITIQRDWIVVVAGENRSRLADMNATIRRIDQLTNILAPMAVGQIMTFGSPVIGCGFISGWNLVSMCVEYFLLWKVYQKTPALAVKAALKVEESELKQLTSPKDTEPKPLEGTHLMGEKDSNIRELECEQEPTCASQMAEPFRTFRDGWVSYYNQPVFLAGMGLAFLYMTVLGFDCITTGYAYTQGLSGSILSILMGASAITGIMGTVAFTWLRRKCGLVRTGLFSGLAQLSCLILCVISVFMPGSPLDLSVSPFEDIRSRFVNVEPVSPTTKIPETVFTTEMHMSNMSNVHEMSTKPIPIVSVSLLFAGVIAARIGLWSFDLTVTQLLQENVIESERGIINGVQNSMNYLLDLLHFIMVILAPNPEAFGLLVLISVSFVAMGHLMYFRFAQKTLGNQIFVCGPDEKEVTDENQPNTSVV
Type: cell-based
Excerpt: This cellular assay allows quantification of the binding of hepcidin to ferroportin (Fpn) through microscopic detection of internalization of a fluorescently labeled hepcidin into J774 cells. […] Binding of hepcidin to Fpn triggers internalization and degradation of both hepcidin and Fpn. […] Therefore, microscopic detection of cell-associated TMR fluorescence is a measure of hepcidin binding to Fpn and internalization of hepcidin and Fpn. If TMR-hepcidin is prevented from binding to Fpn, cellular TMR fluorescence remains low (Durrenberger et al, 2013). The effect of small molecular weight Fpn inhibitor compounds in this assay was evaluated in vitro as described below. […] After removal of the paraformaldehyde solution, cells were washed 3 times with PBS leaving 100 μl per well and the plates were sealed with foil plate seal. TMR (530-550 nm excitation/575-625 nm emission/400 ms exposure time) and Hoechst 33342 (360-370 nm excitation/420-460 nm emission /10 ms exposure time) fluorescence images were acquired using a […] imager (Olympus) with a 20× high NA objective. […] The acquired image data was analysed with the […] analysis software. […] IC50 values were calculated with the Sum(Mean) raw data using “log(inhibitor) vs. response” curve fitting of Prism 5 software (GraphPad Software Inc., version 5.02). For each data set the fit of the “log(inhibitor) vs. response (three parameters)” model was compared to the fit of the “log(inhibitor) vs. response - Variable slope (four parameters)” model and the IC50 data of the preferred model was used.

How did the pIC50 turn out when CCCCn1c(CCNCCc2nc(C(=O)NCc3ncccc3F)co2)nc2cc3c(cc21)OCCO3 [Example 37, 2-(2-((2-(1-butyl-6,7-dihydro-1H-[1,4]dioxino[2′,3′:4,5]benzo[1,2-d]imidazol-2-yl)ethyl)amino)ethyl)-N-((3-fluoropyridin-2-yl)methyl)oxazole-4-carboxamide] was run?
The pIC50 was 9.05.

How did the pIC50 turn out when CCCCn1c(CCNCCc2nc(C(=O)NCc3ncccc3F)co2)nc2ccc(-c3ccccc3)cc21 [Example 41, 2-(2-((2-(1-butyl-6-phenyl-1 H-benzo[d]imidazol-2-yl)ethyl)amino)ethyl)-N-((3-fluoropyridin-2-yl)methyl)oxazole-4-carboxamide] was run?
The pIC50 was 8.40.

With CCCCn1c(CC(C)(C)NCCc2nc(C(=O)NCc3ncccc3F)co2)nc2ccccc21 [Example 52, 2-(2-((1-(1-butyl-1 H-benzo[d]imidazol-2-yl)-2-methylpropan-2-yl)amino)ethyl)-N-((3-fluoropyridin-Z-yl)methyl)oxazole-4-carboxamide] as the molecule, how does the pIC50 read?
Its pIC50 is 6.20.

With COCCn1c(C2CN(CCc3nc(C(=O)NCc4ncccc4F)co3)C2)nc2ccccc21 [Example 96, N-((3-fluoropyridin-2-yl)methyl)-2-(2-(3-(1-(2-methoxyethyl)-1H-benzo[d]imidazol-2-yl)azetidin-1-yl)ethyl)oxazole-4-carboxamide] as the molecule, how does the pIC50 read?
The pIC50 was 6.65.

How did the pIC50 turn out when CCCCn1c(CCNCCc2nc(C(=O)NCc3ncccc3F)co2)nc2ccc(-c3ccccc3OC)cc21 [Example 40, 2-(2-((2-(1-butyl-6-(2-methoxyphenyl)-1 H-benzo[d]imidazol-2-yl)ethyl)amino)ethyl)-N-((3-fluoropyridin-2-yl)methyl)oxazole-4-carboxamide] was run?
The pIC50 was 8.74.

How did the pIC50 turn out when CCCCn1c(CCNCCc2nc(C(=O)NCc3ncccc3F)co2)nc2cc(-c3ccccc3OC)ccc21 [Example 39, 2-(2-((2-(1-butyl-5-(2-methoxyphenyl)-1 H-benzo[d]imidazol-2-yl)ethyl)amino)ethyl)-N-((3-fluoropyridin-2-yl)methyl)oxazole-4-carboxamide] was run?
Its pIC50 is 8.77.

How did the pIC50 turn out when O=C(NCc1ncccc1F)c1coc(CCNCCc2nc3ccccc3n2-c2ccccc2)n1 [Example 55, N-((3-fluoropyridin-2-yl)methyl)-2-(2-((2-(1-phenyl-1 H-benzo[d]imidazol-2-yl)ethyl)amino)ethyl)oxazole-4-carboxamide] was run?
Its pIC50 is 8.85.

CC(C)OCCn1c(CCNCCc2nc(C(=O)NCc3ncccc3F)co2)nc2cc3c(cc21)OCCO3 [Example 73, N-((3-fluoropyridin-2-yl)methyl)-2-(2-((2-(1-(2-isopropoxyethyl)-6,7-dihydro-1 H-[1,4]dioxino[2′,3′:4,5]benzo[1,2-d]imidazol-2-yl)ethyl)amino)ethyl)oxazole-4-carboxamide] was tested. Which pIC50 did it give?
Its pIC50 is 8.59.

With CN1CCN(CCn2c(CCNCCc3nc(C(=O)NCc4ncccc4F)co3)nc3cc4c(cc32)OCCO4)CC1 [Example 84, N-((3-fluoropyridin-2-yl)methyl)-2-(2-((2-(1-(2-(4-methylpiperazin-1-yl)ethyl)-6,7-dihydro-1H-[1,4]dioxino[2′,3′:4,5]benzo[1,2-d]imidazol-2-yl)ethyl)amino)ethyl)oxazole-4-carboxamide] as the molecule, how does the pIC50 read?
The pIC50 was 6.82.

How did the pIC50 turn out when COc1cccnc1CNC(=O)c1coc(CCNCCc2nc3cc4c(cc3n2CCN(C)C)OCCO4)n1 [Example 76, 2-(2-((2-(1-(2-(dimethylamino)ethyl)-6,7-dihydro-1 H-[1,4]dioxino[2′,3′:4,5]benzo[1,2-d]imidazol-2-yl)ethyl)amino)ethyl)-N-((3-methoxypyridin-2-yl)methyl)oxazole-4-carboxamide] was run?
The pIC50 was 7.89.

CCCCn1c(C2CCN(CCc3nc(C(=O)NCc4ncccc4F)co3)CC2)nc2ccccc21 [Example 49, 2-(2-(4-(1-butyl-1 H-benzo[d]imidazol-2-yl)piperidin-1-yl)ethyl)-N-((3-fluoropyridin-2-yl)methyl)oxazole-4-carboxamide] was tested. Which pIC50 did it give?
The pIC50 was 5.48.

How did the pIC50 turn out when O=C(NCc1ncccc1F)c1coc(CCNCCc2nc3ccccc3n2CC2CC2)n1 [Example 50, 2-(2-((2-(1-(Cyclopropylmethyl)-1 H-benzo[d]imidazol-2-yl)ethyl)amino)ethyl)-N-((3-fluoropyridin-2-yl)methyl)oxazole-4-carboxamide] was run?
Its pIC50 is 9.10.

With O=C(NCc1ncccc1F)c1coc(CCNCCc2nc3ccccc3n2Cc2ccccc2)n1 [Example 17, 2-(2-((2-(1-benzyl-1 H-benzo[d]imidazol-2-yl)ethyl)amino)ethyl)-N-((3-fluoropyridin-2-yl)methyl)oxazole-4-carboxamide] as the molecule, how does the pIC50 read?
Its pIC50 is 9.10.

With COCCn1c(CCNCCc2nc(C(=O)NCc3ncccc3OC)co2)nc2cc3c(cc21)OCO3 [Example 70, 2-(2-((2-(5-(2-methoxyethyl)-5H-[1,3]dioxolo[4′,5′:4,5]benzo[1,2-d]imidazol-6-yl)ethyl)amino)ethyl)-N-((3-methoxypyridin-2-yl)methyl)oxazole-4-carboxamide] as the molecule, how does the pIC50 read?
Its pIC50 is 8.41.

COc1cccc(-n2c(CCNCCc3nc(C(=O)NCc4ncccc4OC)co3)nc3cc4c(cc32)OCCO4)c1 [Example 93, 2-(2-((2-(1-(3-methoxyphenyl)-6,7-dihydro-1 H-[1,4]dioxino[2′,3′:4,5]benzo[1,2-d]imidazol-2-yl)ethyl)amino)ethyl)-N-((3-methoxypyridin-2-yl)methyl)oxazole-4-carboxamide] was tested. Which pIC50 did it give?
The pIC50 was 8.52.

With CCCCn1c(C(C)(C)CNCCc2nc(C(=O)NCc3ncccc3F)co2)nc2ccccc21 [Example 60, 2-(2-((2-(1-butyl-1 H-benzo[d]imidazol-2-yl)-2-methylpropyl)amino)ethyl)-N-((3-fluoropyridin-2-yl)methyl)oxazole-4-carboxamide] as the molecule, how does the pIC50 read?
The pIC50 was 6.45.

CCn1c(CCNCCc2nc(C(=O)NCc3ncccc3F)co2)nc2ccccc21 [Example 6, 2-(2-((2-(1-ethyl-1 H-benzo[d]imidazol-2-yl)ethyl)amino)ethyl)-N-((3-fluoropyridin-2-yl)methyl)oxazole-4-carboxamide] was tested. Which pIC50 did it give?
Its pIC50 is 8.44.

O=C(NCc1ncccc1F)c1coc(CCNCCc2nc3cc4c(cc3n2CCN2CCOCC2)OCCO4)n1 [Example 81, N-((3-fluoropyridin-2-yl)methyl)-2-(2-((2-(1-(2-morpholinoethyl)-6,7-dihydro-1 H-[1,4]dioxino[2′,3′:4,5]benzo[1,2-d]imidazol-2-yl)ethyl)amino)ethyl)oxazole-4-carboxamide] was tested. Which pIC50 did it give?
Its pIC50 is 8.40.

How did the pIC50 turn out when O=C(NCc1ncccc1F)c1coc(CCNCCc2nc3ccccc3n2CCC2CC2)n1 [Example 21, 2-(2-((2-(1-(2-cyclopropylethyl)-1 H-benzo[d]imidazol-2-yl)ethyl)amino)ethyl)-N-((3-fluoropyridin-2-yl)methyl)oxazole-4-carboxamide] was run?
The pIC50 was 9.00.

With O=C(NCc1ncccc1F)c1coc(CCNCCc2nc3cc4c(cc3n2CCN2CCCCC2)OCCO4)n1 [Example 74, N-((3-fluoropyridin-2-yl)methyl)-2-(2-((2-(1-(2-(piperidin-1-yl)ethyl)-6,7-dihydro-1H-[1,4]dioxino[2′,3′:4,5]benzo[1,2-d]imidazol-2-yl)ethyl)amino)ethyl)oxazole-4-carboxamide] as the molecule, how does the pIC50 read?
Its pIC50 is 8.31.

How did the pIC50 turn out when COc1cccnc1CNC(=O)c1coc(CCNCCc2nc3cc4c(cc3n2CCOC2CCCCC2)OCCO4)n1 [Example 91, 2-(2-((2-(1-(2-(cyclohexyloxy)ethyl)-6,7-dihydro-1H-[1,4]dioxino[2′,3′:4,5]benzo[1,2-d]imidazol-2-yl)ethyl)amino)ethyl)-N-((3-methoxypyridin-2-yl)methyl)oxazole-4-carboxamide] was run?
Its pIC50 is 8.70.
